Experimental data from patent US20140213648A1, “METHODS OF INCREASING EPA BLOOD LEVELS” (priority 2012, published 2014).

Assay: 12-week placebo-controlled study: plasma fatty acid concentrations, ratios and proportions (GC/FID)
Type: in vivo, human
Conditions: for AA plasma concentration, change from baseline (LS mean (SE)) / AA plasma concentration, end-of-treatment (mean) / DHA plasma concentration, change from baseline (LS mean (SE)) / DHA plasma concentration, end-of-treatment (mean) / Linoleic plasma concentration, change from baseline (LS mean (SE)) / Linoleic plasma concentration, end-of-treatment (mean) / Oleic plasma concentration, change from baseline (LS mean (SE)) / Oleic plasma concentration, end-of-treatment (mean) / Palmitic plasma concentration, change from baseline (LS mean (SE)) / Palmitic plasma concentration, end-of-treatment (mean) / Proportion of monounsaturated fatty acids to total fatty acids in plasma, change from baseline (LS mean (SE)) / Proportion of monounsaturated fatty acids to total fatty acids in plasma, end-of-treatment (mean (SD)) / Proportion of saturated fatty acids to total fatty acids in plasma, change from baseline (LS mean (SE)) / Proportion of saturated fatty acids to total fatty acids in plasma, end-of-treatment (mean (SD)) / Proportion of total omega-3 fatty acids to total fatty acids in plasma, change from baseline (LS mean (SE)) / Proportion of total omega-3 fatty acids to total fatty acids in plasma, end-of-treatment (mean (SD)) / Proportion of total omega-6 fatty acids to total fatty acids in plasma, change from baseline (LS mean (SE)) / Proportion of total omega-6 fatty acids to total fatty acids in plasma, end-of-treatment (mean (SD)) / Ratio of AA/EPA in plasma, change from baseline (LS mean (SE)) / Ratio of AA/EPA in plasma, end-of-treatment (mean) / Ratio of n-3/n-6 FA in plasma, change from baseline (LS mean (SE)) / Ratio of n-3/n-6 FA in plasma, end-of-treatment (mean) / Stearic plasma concentration, change from baseline (LS mean (SE)) / Stearic plasma concentration, end-of-treatment (mean): week 12
Procedure: A multi-center, placebo-controlled randomized, double-blind, 12-week study with an open-label extension is performed to evaluate the efficacy and safety of AMR101 in patients with fasting triglyceride levels ≧500 mg/dL. The primary objective of the study is to determine the efficacy of AMR101 2 g daily and 4 g daily, compared to placebo, in lowering fasting TG levels in patients with fasting TG levels ≧500 mg/dL and ≦1500 mg/dL (≧5.65 mmol/L and ≦16.94 mmol/L).
Eligible patients will be randomly assigned at Visit 4 (Week 0) to receive orally AMR101 2 g daily, AMR101 4 g daily, or placebo for the 12-week double-blind treatment period. AMR101 is provided in 1 g liquid-filled, oblong, gelatin capsules. The matching placebo capsule is filled with light liquid paraffin and contains 0 g of AMR101. During the double-blind treatment period, patients will take 2 capsules (AMR101 or matching placebo) in the morning and 2 in the evening for a total of 4 capsules per day. Patients in the AMR101 2 g/day treatment group will receive 1 AMR101 1 g capsule and 1 matching placebo capsule in the morning and in the evening. Patients in the AMR101 4 g/day treatment group will receive 2 AMR101 1 g capsules in the morning and evening.
Lipids were extracted from plasma and RBC suspensions and converted into fatty acid methyl esters for analysis using a standard validated gas chromatography/flame ionization detection method. Fatty acid parameters were compared between EPA treatment groups and placebo using an ANCOVA model with treatment, gender, type of statin therapy, and presence of diabetes as factors, and the baseline parameter value as a covariate. LSMs, SEs, and 2-tailed 95% confidence intervals for each treatment group and for each comparison were determined.

[1] = 2 g/day vs placebo, week 12, P <0.0001
[2] = 4 g/day vs placebo, week 12, P <0.0001

With `CC/C=C\C/C=C\C/C=C\C/C=C\C/C=C\CCCC(=O)OCC` [IPE, Icosapent ethyl] the “Dose dependence of EPA concentration in plasma (in words)” value (2 g/day or 4 g/day, 12 weeks) was “significantly increased EPA concentrations in a linear, dose-dependent fashion”, the “Proportion of monounsaturated fatty acids to total fatty acids in plasma, mean placebo-adjusted percent change from baseline” value (2 g/day vs placebo, week 12, P 0.0009) was −7.4% and the “Palmitic plasma concentration, mean placebo-adjusted percent change from baseline” value (2 g/day vs placebo, week 12, P 0.0011) was −23.9%. The “Oleic plasma concentration, mean placebo-adjusted percent change from baseline” value (2 g/day vs placebo, week 12, P 0.0023) was −23.8%, the “Stearic plasma concentration, mean placebo-adjusted percent change from baseline” value (2 g/day vs placebo, week 12, P 0.0040) was −20.7% and the “Linoleic plasma concentration, mean placebo-adjusted percent change from baseline” value (2 g/day vs placebo, week 12, P 0.0136) was −15.2%. For the same molecule, the “Proportion of total omega-6 fatty acids to total fatty acids in plasma, mean placebo-adjusted percent change from baseline” value (2 g/day vs placebo, week 12, P 0.3044) was 3.2%, the “DHA plasma concentration, mean placebo-adjusted percent change from baseline” value (2 g/day vs placebo, week 12, P 0.7217) was −2.3% and the “Proportion of saturated fatty acids to total fatty acids in plasma, mean placebo-adjusted percent change from baseline” value (2 g/day vs placebo, week 12, P 0.8076) was −0.4%. For the same molecule, the “AA plasma concentration, mean placebo-adjusted percent change from baseline” value [1] was −16.4%, the “Proportion of total omega-3 fatty acids to total fatty acids in plasma, mean placebo-adjusted percent change from baseline” value [1] was 68.4% and the “Ratio of AA/EPA in plasma, mean placebo-adjusted percent change from baseline” value [1] was −88.4%. For the same molecule, the “Ratio of n-3/n-6 FA in plasma, mean placebo-adjusted percent change from baseline” value [1] was 76.8%, the “AA plasma concentration, change from baseline (LS mean (SE))” value (2 g/day) was −36.7 (10.6) and the “AA plasma concentration, end-of-treatment (mean)” value (2 g/day) was 327.3. The “DHA plasma concentration, change from baseline (LS mean (SE))” value (2 g/day) was −13.1 (6.2), the “DHA plasma concentration, end-of-treatment (mean)” value (2 g/day) was 104.8 and the “Linoleic plasma concentration, change from baseline (LS mean (SE))” value (2 g/day) was −227 (121.4). The “Linoleic plasma concentration, end-of-treatment (mean)” value (2 g/day) was 1981, the “Oleic plasma concentration, change from baseline (LS mean (SE))” value (2 g/day) was −414 (142.9) and the “Oleic plasma concentration, end-of-treatment (mean)” value (2 g/day) was 2018. For the same molecule, the “Palmitic plasma concentration, change from baseline (LS mean (SE))” value (2 g/day) was −353 (126.9), the “Palmitic plasma concentration, end-of-treatment (mean)” value (2 g/day) was 2015 and the “Proportion of monounsaturated fatty acids to total fatty acids in plasma, change from baseline (LS mean (SE))” value (2 g/day) was −1.4 (0.5) mol %. For the same molecule, the “Proportion of monounsaturated fatty acids to total fatty acids in plasma, end-of-treatment (mean (SD))” value (2 g/day) was 29.5 (4.9) mol %, the “Proportion of saturated fatty acids to total fatty acids in plasma, change from baseline (LS mean (SE))” value (2 g/day) was −0.3 (0.5) mol % and the “Proportion of saturated fatty acids to total fatty acids in plasma, end-of-treatment (mean (SD))” value (2 g/day) was 35.8 (3.7) mol %. The “Proportion of total omega-3 fatty acids to total fatty acids in plasma, change from baseline (LS mean (SE))” value (2 g/day) was 2.0 (0.2) mol %, the “Proportion of total omega-3 fatty acids to total fatty acids in plasma, end-of-treatment (mean (SD))” value (2 g/day) was 4.8 (1.3) mol % and the “Proportion of total omega-6 fatty acids to total fatty acids in plasma, change from baseline (LS mean (SE))” value (2 g/day) was −0.2 (0.7) mol %. For the same molecule, the “Proportion of total omega-6 fatty acids to total fatty acids in plasma, end-of-treatment (mean (SD))” value (2 g/day) was 29.8 (6.8) mol %, the “Ratio of AA/EPA in plasma, change from baseline (LS mean (SE))” value (2 g/day) was −9.6 (0.5) and the “Ratio of AA/EPA in plasma, end-of-treatment (mean)” value (2 g/day) was 2.3. For the same molecule, the “Ratio of n-3/n-6 FA in plasma, change from baseline (LS mean (SE))” value (2 g/day) was 0.07 (0.009), the “Ratio of n-3/n-6 FA in plasma, end-of-treatment (mean)” value (2 g/day) was 0.17 and the “Stearic plasma concentration, change from baseline (LS mean (SE))” value (2 g/day) was −57.8 (33.3). The “Stearic plasma concentration, end-of-treatment (mean)” value (2 g/day) was 541.5, the “Oleic plasma concentration, mean placebo-adjusted percent change from baseline” value (4 g/day vs placebo, week 12, P 0.0001) was −31.9% and the “Stearic plasma concentration, mean placebo-adjusted percent change from baseline” value (4 g/day vs placebo, week 12, P 0.0002) was −28.4%. For the same molecule, the “Linoleic plasma concentration, mean placebo-adjusted percent change from baseline” value (4 g/day vs placebo, week 12, P 0.0003) was −23.7%, the “Proportion of monounsaturated fatty acids to total fatty acids in plasma, mean placebo-adjusted percent change from baseline” value (4 g/day vs placebo, week 12, P 0.0008) was −7.7% and the “Proportion of saturated fatty acids to total fatty acids in plasma, mean placebo-adjusted percent change from baseline” value (4 g/day vs placebo, week 12, P 0.1049) was −2.8%. For the same molecule, the “DHA plasma concentration, mean placebo-adjusted percent change from baseline” value (4 g/day vs placebo, week 12, P 0.7115) was 2.4%, the “Proportion of total omega-6 fatty acids to total fatty acids in plasma, mean placebo-adjusted percent change from baseline” value (4 g/day vs placebo, week 12, P 0.8846) was 0.5% and the “AA plasma concentration, mean placebo-adjusted percent change from baseline” value [2] was −26.8%. For the same molecule, the “Palmitic plasma concentration, mean placebo-adjusted percent change from baseline” value [2] was −34.4%, the “Proportion of total omega-3 fatty acids to total fatty acids in plasma, mean placebo-adjusted percent change from baseline” value [2] was 132.7% and the “Ratio of AA/EPA in plasma, mean placebo-adjusted percent change from baseline” value [2] was −99.4%. For the same molecule, the “Ratio of n-3/n-6 FA in plasma, mean placebo-adjusted percent change from baseline” value [2] was 145.8%, the “AA plasma concentration, change from baseline (LS mean (SE))” value (4 g/day) was −76.2 (11.3) and the “AA plasma concentration, end-of-treatment (mean)” value (4 g/day) was 280.3. The “DHA plasma concentration, change from baseline (LS mean (SE))” value (4 g/day) was −4.5 (6.6), the “DHA plasma concentration, end-of-treatment (mean)” value (4 g/day) was 118.1 and the “Linoleic plasma concentration, change from baseline (LS mean (SE))” value (4 g/day) was −309 (128.1). For the same molecule, the “Linoleic plasma concentration, end-of-treatment (mean)” value (4 g/day) was 1882, the “Oleic plasma concentration, change from baseline (LS mean (SE))” value (4 g/day) was −546 (154.0) and the “Oleic plasma concentration, end-of-treatment (mean)” value (4 g/day) was 1885. The “Palmitic plasma concentration, change from baseline (LS mean (SE))” value (4 g/day) was −560 (138.1), the “Palmitic plasma concentration, end-of-treatment (mean)” value (4 g/day) was 1789 and the “Proportion of monounsaturated fatty acids to total fatty acids in plasma, change from baseline (LS mean (SE))” value (4 g/day) was −1.7 (0.5) mol %. The “Proportion of monounsaturated fatty acids to total fatty acids in plasma, end-of-treatment (mean (SD))” value (4 g/day) was 28.7 (4.0) mol %, the “Proportion of saturated fatty acids to total fatty acids in plasma, change from baseline (LS mean (SE))” value (4 g/day) was −1.2 (0.5) mol % and the “Proportion of saturated fatty acids to total fatty acids in plasma, end-of-treatment (mean (SD))” value (4 g/day) was 34.8 (3.5) mol %. The “Proportion of total omega-3 fatty acids to total fatty acids in plasma, change from baseline (LS mean (SE))” value (4 g/day) was 3.8 (0.2) mol %, the “Proportion of total omega-3 fatty acids to total fatty acids in plasma, end-of-treatment (mean (SD))” value (4 g/day) was 6.7 (1.9) mol % and the “Proportion of total omega-6 fatty acids to total fatty acids in plasma, change from baseline (LS mean (SE))” value (4 g/day) was −0.9 (0.7) mol %. The “Proportion of total omega-6 fatty acids to total fatty acids in plasma, end-of-treatment (mean (SD))” value (4 g/day) was 29.8 (6.2) mol %, the “Ratio of AA/EPA in plasma, change from baseline (LS mean (SE))” value (4 g/day) was −10.8 (0.5) and the “Ratio of AA/EPA in plasma, end-of-treatment (mean)” value (4 g/day) was 1.2. For the same molecule, the “Ratio of n-3/n-6 FA in plasma, change from baseline (LS mean (SE))” value (4 g/day) was 0.4 (0.009), the “Ratio of n-3/n-6 FA in plasma, end-of-treatment (mean)” value (4 g/day) was 0.24 and the “Stearic plasma concentration, change from baseline (LS mean (SE))” value (4 g/day) was −101 (35.4). The “Stearic plasma concentration, end-of-treatment (mean)” value (4 g/day) was 500.3.
